# According to ChEMBL document CHEMBL3784969, “Pharmacokinetics of flutamide in patients with renal insufficiency” (Br J Clin Pharmacol, 1999):
# Assay: Plasma protein binding in healthy geriatric volunteer by equilibrium dialysis method
# Format: ADME, cell-free
# Conditions: human, read-out: PPB
smiles,measurement,value
CC(C)(O)C(=O)Nc1ccc([N+](=O)[O-])c(C(F)(F)F)c1 [HYDROXYFLUTAMIDE],fraction unbound,< 0.06
